Assay: Measurement of log P values by HPLC on reversed phase columns (EEC directive 79/831 Annex V.A8; methods [a] pH 2.3, [b] pH 2.7, [c] pH 7.8)
Format: physicochemical
Description: Measurement of log P-values:
Measurement of log P values was performed according EEC directive 79/831 Annex V.A8 by HPLC (High Performance Liquid Chromatography) on reversed phase columns with the following methods:
^[a] Measurement was done at pH 2.3 with 0.1% phosphoric acid and acetonitrile as eluent with a linear gradient from 10% acetonitrile to 95% acetonitrile.
^[b] measurement of LC-MS was done at pH 2.7 with 0.1% formic acid in water and with acetonitrile (contains 0.1% formic acid) as eluent with a linear gradient from 10% acetonitrile to 95% acetonitrile.
^[c] Measurement with LC-MS was done at pH 7.8 with 0.001 molar ammonium hydrogen carbonate solution in water as eluent with a linear gradient from 10% acetonitrile to 95% acetonitrile.
Calibration was done with not branched alkan2-ones (with 3 to 16 carbon atoms) with known log P-values (measurement of log P values using retention times with linear interpolation between successive alkanones).. lambda-maX-values were determined using UV-spectra from 200 nm to 400 nm and the peak values of the chromatographic signals.

[1] = method [b]: LC-MS, pH 2.7, 0.1% formic acid in water / acetonitrile
[2] = method [c]: LC-MS, pH 7.8, 0.001 molar ammonium hydrogen carbonate / acetonitrile
[3] = method [b]: LC-MS at pH 2.7, 0.1% formic acid in water / acetonitrile
[4] = method [c]: LC-MS at pH 7.8, 0.001 molar ammonium hydrogen carbonate in water / acetonitrile
[5] = method [a]: HPLC, pH 2.3, 0.1% phosphoric acid / acetonitrile

logP [1] | log P [3] | log P [4] | Structure (SMILES) | also measured
2.03^[b] | – | – | COC(c1cc(Cl)cc(Cl)c1)C(C)NC(=O)c1cccnc1C(F)F (stereo not shown) [Compound 93] | –
3.24^[b] | – | – | COC(c1ccc(Cl)cc1)C(C)(C)NC(=O)c1cccnc1Cl (stereo not shown) [Compound 81] | logP [2]: 3.23^[c];
– | 4.43^[b] | 4.39^[c]; | CCOC(c1ccc(Cl)cc1Cl)C(C)NC(=O)c1ccccc1Br (stereo not shown) [Compound 200] | –
– | 2.89^[b] | 3.03^[c]; | CCOC(c1ccc(Cl)cc1Cl)C(C)NC(=O)c1cccnc1 (stereo not shown) [Compound 206] | –
4.68^[b] | – | – | COC(c1ccc(Cl)cc1Cl)C(C)(C)NC(=O)c1ccccc1C(F)(F)F (stereo not shown) [Compound 76] | logP [2]: 4.62^[c];
– | 3.94^[b] | – | COC(c1ccc(Cl)cc1Cl)C1(NC(=O)c2cc([N+](=O)[O-])nn2C(F)F)CC1 (stereo not shown) [compound 122] | –
– | 3.78^[b] | 3.75^[c]; | COC(c1ccc(Cl)cc1Cl)C1(NC(=O)c2ccccc2F)CC1 (stereo not shown) [Compound 155] | –
– | – | – | C#CCOC(c1ccc(Cl)cc1)C(C)(C)NC(=O)c1sccc1C (stereo not shown) [compound 4] | logP [5]: 4.22^[a]
3.70^[b] | – | – | COC(c1cc(Cl)cc(Cl)c1)C(C)NC(=O)c1c(C(F)F)nn(C)c1F (stereo not shown) [Compound 43] | –
4.18^[b] | – | – | CCC(NC(=O)c1c(C(F)F)nn(C)c1Cl)C(OC)c1ccc(Cl)cc1Cl (stereo not shown) [Compound 48] | –
– | 4.55^[b] | 4.53^[c]; | CCOC(c1ccc(Cl)cc1Cl)C(C)NC(=O)c1c(F)cccc1C(F)(F)F (stereo not shown) [Compound 193] | –
– | 3.45^[b] | 3.41^[c]; | COC(c1ccccc1Cl)C(C)NC(=O)c1ccccc1C(F)(F)F (stereo not shown) [Compound 145] | –
– | – | – | COC(c1ccc(Cl)cc1)C(C)NC(=O)c1c(F)cccc1F (stereo not shown) [Compound 132, N-[1-(4-chlorophenyl)-1-methoxypropan-2-yl]-2,6-difluorobenzamide] | chromatographic logP (method [b]: LC-MS at pH 2.7, 0.1% formic acid in water / acetonitrile, read-out: log P): 3.12
3.25^[b] | – | – | COC(CNC(=O)c1c(C(F)F)nn(C)c1F)c1ccc(Cl)cc1Cl (stereo not shown) [Compound 45] | –
3.74^[b] | – | – | COC(c1cc(Cl)cc(Cl)c1)C(C)NC(=O)c1nccnc1C(F)(F)F (stereo not shown) [Compound 95] | –
– | 2.91^[b] | 2.86^[c]; | COC(c1ccc(F)cc1)C(C)NC(=O)c1ccccc1C (stereo not shown) [Compound 188] | –
4.25^[b] | – | – | COC(c1ccc(Cl)cc1)C(C)(C)NC(=O)c1ccccc1C(F)(F)F (stereo not shown) [Compound 85] | logP [2]: 3.99^[c];
1.93^[b] | – | – | COC(CNC(=O)c1cn(C)nc1C(F)F)c1ccccc1 (stereo not shown) [Compound 16] | –
– | 3.46^[b] | – | COC(c1ccc(Cl)cc1Cl)C1(NC(=O)c2ccnn2C(F)F)CC1 (stereo not shown) [compound 121] | –
– | 3.65^[b] | 3.61^[c]; | COC(c1ccc(Cl)cc1)C(C)NC(=O)c1c(F)cccc1C(F)(F)F (stereo not shown) [Compound 134] | –
5.34^[b] | – | – | COC(c1ccc(Cl)cc1Cl)C(C)(C)NC(=O)c1sccc1Cl (stereo not shown) [Compound 78] | logP [2]: 5.31^[c];
– | 2.65^[b] | 2.62^[c]; | COC(c1ccc(Cl)cc1)C(C)NC(=O)c1cccnc1Cl (stereo not shown) [Compound 135] | –
– | – | 3.16^[c] | COC(c1ccc(F)cc1)C(C)NC(=O)c1ccccc1C(F)(F)F (stereo not shown) [Compound 190] | –

logP [1] | log P [3] | log P [4] | Structure (SMILES) | also measured
3.33^[b] | – | – | COC(CNC(=O)c1c(C(F)F)nn(C)c1F)c1cc(Cl)cc(Cl)c1 (stereo not shown) [Compound 41] | –
– | – | – | Cc1ccc(COC(CNC(=O)c2sccc2C)c2ccc(Cl)cc2)cc1 (stereo not shown) [compound 5] | logP [5]: 4.62^[a]
3.48^[b] | – | – | COC(CNC(=O)c1c(C(F)F)nn(C)c1Cl)c1ccc(Cl)cc1Cl (stereo not shown) [Compound 44] | –
3.94^[b] | – | – | CCC(NC(=O)c1c(C(F)F)nn(C)c1F)C(OC)c1ccc(Cl)cc1Cl (stereo not shown) [Compound 49] | –
3.35^[b] | – | – | CCC(NC(=O)c1cccnc1C(F)F)C(OC)c1ccc(Cl)cc1Cl (stereo not shown) [Compound 90] | –
3.70^[b] | – | – | CCC(NC(=O)c1cccnc1C(F)(F)F)C(OC)c1ccc(Cl)cc1Cl (stereo not shown) [Compound 91] | –
– | 4.66^[b] | 4.65^[c]; | CCOC(c1ccc(Cl)cc1Cl)C(C)NC(=O)c1ccccc1F (stereo not shown) [Compound 195] | –
3.55^[b] | – | – | COC(CNC(=O)c1c(C(F)F)nn(C)c1Cl)c1cc(Cl)cc(Cl)c1 (stereo not shown) [Compound 40] | –
– | 4.14^[b] | 4.13^[c]; | CCOC(c1ccc(Cl)cc1Cl)C(C)NC(=O)c1c(F)cccc1F (stereo not shown) [Compound 196] | –
– | 4.30^[b] | – | COC(c1ccc(Cl)cc1Cl)C(C)N(C(=O)C1=C(C)OCCS1)C1CC1 (stereo not shown) [Compound 172] | –
– | 3.92^[b] | 3.88^[c]; | COC(c1ccc(Cl)cc1Cl)C1(NC(=O)c2ccccc2I)CC1 (stereo not shown) [Compound 152] | –
2.75^[b] | – | – | COC(CNC(=O)c1cccnc1Cl)c1ccc(Cl)cc1Cl (stereo not shown) [Compound 102] | –
4.29^[b] | – | – | COC(c1ccc(Cl)cc1Cl)C(C)(C)NC(=O)c1c(F)cccc1F (stereo not shown) [Compound 77] | logP [2]: 4.24^[c];
– | 4.69^[b] | – | COC(c1ccc(Cl)cc1Cl)C(C)N(C(=O)c1nccnc1C(F)(F)F)C1CC1 (stereo not shown) [Compound 174] | –
4.46^[b] | – | – | CCOC(c1ccc(Cl)cc1Cl)C(C)NC(=O)c1c(C(F)F)nn(C)c1Cl (stereo not shown) [Compound 46] | –
3.73^[b] | – | – | COC(c1ccc(Cl)cc1Cl)C(C)NC(=O)c1cc(C)nn1C(F)F (stereo not shown) [compound 115] | –
– | 3.44^[b] | 3.42^[c]; | COC(c1ccccc1Cl)C(C)NC(=O)c1ccccc1F (stereo not shown) [Compound 147] | –
– | 2.83^[b] | 2.93^[c]; | COC(c1ccc(Cl)cc1)C(C)NC(=O)c1ccccc1[N+](=O)[O-] (stereo not shown) [Compound 139] | –
– | 2.88^[b] | – | COC(CNC(=O)c1cccnc1C(F)F)c1cc(Cl)cc(Cl)c1 (stereo not shown) [Compound 117] | –
– | 3.05^[b] | – | COC(c1ccc(Cl)cc1Cl)C1(NC(=O)c2cc(C)nn2C)CC1 (stereo not shown) [compound 125] | –
4.59^[b] | – | – | COC(c1ccc(Cl)cc1Cl)C(C)(C)NC(=O)c1ccccc1Cl (stereo not shown) [Compound 75] | logP [2]: 4.54^[c];
– | 3.92^[b] | – | COC(c1ccc(Cl)cc1Cl)C(C)N(C(=O)c1cccnc1C(F)F)C1CC1 (stereo not shown) [Compound 171] | –
3.78^[b] | – | – | COC(c1ccc(Cl)cc1)C(C)(C)NC(=O)c1c(F)cccc1F (stereo not shown) [Compound 82] | logP [2]: 3.79^[c];

logP [1] | log P [3] | log P [4] | Structure (SMILES) | also measured
– | 3.75^[b] | 3.72^[c]; | COC(c1ccc(Cl)cc1Cl)C1(NC(=O)c2ccccc2C)CC1 (stereo not shown) [Compound 153] | –
– | 2.82^[b] | 2.78^[c]; | COC(c1ccccc1Cl)C(C)NC(=O)c1ccccc1[N+](=O)[O-] (stereo not shown) [Compound 138] | –
– | – | – | C#CCOC(c1ccc(Cl)c(Cl)c1)C(C)(C)NC(=O)c1sccc1C (stereo not shown) [compound 3] | logP [5]: 4.58^[a]
3.65^[b] | – | – | COC(c1ccc(Cl)cc1Cl)C(C)NC(=O)c1c(C(F)F)nn(C)c1F (stereo not shown) [compound 14] | –
– | 3.89^[b] | 3.85^[c]; | CCOC(c1ccc(Cl)cc1Cl)C(C)NC(=O)c1nccnc1Cl (stereo not shown) [Compound 214] | –
– | 2.25^[b] | 2.23^[c]; | COC(c1ccc(F)cc1)C(C)NC(=O)c1cccnc1Cl (stereo not shown) [Compound 184] | –
– | 4.51^[b] | 4.56^[c]; | CCOC(c1ccc(Cl)cc1Cl)C(C)NC(=O)c1ccccc1I (stereo not shown) [Compound 197] | –
4.24^[b] | – | – | COC(c1ccc(Cl)cc1)C(C)(C)NC(=O)c1ccccc1F (stereo not shown) [Compound 83] | logP [2]: 3.99^[c];
– | 4.11^[b] | – | COC(CN(C(=O)C1=C(C)OCCS1)C1CC1)c1ccc(Cl)cc1Cl (stereo not shown) [Compound 169] | –
– | 4.35^[b] | 4.33^[c]; | CCOC(c1ccc(Cl)cc1Cl)C(C)NC(=O)c1ccccc1C (stereo not shown) [Compound 198] | –
3.52^[b] | – | – | COC(c1cc(Cl)cc(Cl)c1)C(C)NC(=O)c1cccnc1C(F)(F)F (stereo not shown) [Compound 96] | –
3.13^[b] | – | – | COC(c1ccc(Cl)cc1Cl)C(C)NC(=O)c1c(C)nn(C)c1F (stereo not shown) [compound 13] | –
3.06^[b] | – | – | COC(c1ccc(Cl)cc1Cl)C1(NC(=O)c2cccnc2C(F)F)CC1 (stereo not shown) [Compound 97] | –
– | 3.34^[b] | 3.31^[c]; | COC(c1ccccc1Cl)C(C)NC(=O)c1sc(C)nc1C(F)(F)F (stereo not shown) [Compound 212] | –
– | 4.37^[b] | 4.42^[c]; | CCOC(c1ccc(Cl)cc1Cl)C(C)NC(=O)c1sc(C)nc1C(F)(F)F (stereo not shown) [Compound 204] | –
– | 3.40^[b] | 3.44^[c]; | COC(c1ccc(Cl)cc1)C(C)NC(=O)c1ccccc1F (stereo not shown) [Compound 133] | –
– | 2.82^[b] | – | COC(CNC(=O)c1cccnc1Cl)c1cc(Cl)cc(Cl)c1 (stereo not shown) [Compound 118] | –
3.70^[b] | – | – | COC(c1ccc(Cl)cc1Cl)C1(NC(=O)c2c(C(F)F)nn(C)c2Cl)CC1 (stereo not shown) [Compound 50] | –
– | 3.33^[b] | 3.26^[c]; | COC(c1ccc(Cl)cc1Cl)C1(NC(=O)c2ccccc2[N+](=O)[O-])CC1 (stereo not shown) [Compound 211] | –
– | 3.04^[b] | 3.02^[c]; | COC(c1ccc(F)cc1)C(C)NC(=O)c1ccccc1F (stereo not shown) [Compound 183] | –
– | 3.19^[b] | – | COC(CNC(=O)c1cccnc1C(F)(F)F)c1cc(Cl)cc(Cl)c1 (stereo not shown) [Compound 119] | –

Structure (SMILES) | logP [1] | log P [3] | log P [4] | also measured
COC(c1ccc(Cl)cc1Cl)C(C)NC(=O)c1cn(C)nc1C(F)F (stereo not shown) [compound 17] | 3.25^[b] | – | – | –
